Experimental data published in US4459290A, “C-23-Modified derivatives of OMT, pharmaceutical compositions and method of use” (priority 1982, dated 1984).
Converted amounts (≈) assume the structure as drawn. Read-outs that look alike come from different tables or passages of the source.

Columns and labels:
[1] = tested on: Haemophilus influenzae R252; assay: MIC, standard agar-dilution assay (Table V); type: cell-based; conditions: Haemophilus influenzae
Experimental: (§1) The MIC's in Tables V and VI were determined by standard agar-dilution assays. The MIC's in Table VII were obtained using a conventional broth-dilution microtiter test.

[2] = tested on: Haemophilus influenzae Holt; assay: MIC, standard agar-dilution assay (Table V); type: cell-based; conditions: Haemophilus influenzae; H. influenzae Holt, ampicillin-sensitive strain; agar dilution; read-out: MIC
Experimental: as §1

[3] = tested on: Streptococcus pyogenes C203; assay: MIC, standard agar-dilution assay (Table V); type: cell-based; conditions: Streptococcus pyogenes; S. pyogenes C203; agar dilution; read-out: MIC
Experimental: as §1

Mycoplasma synoviae = assay: MIC, broth-dilution microtiter test (Table VII); type: cell-based; conditions: Mycoplasmopsis synoviae; M. synoviae; broth-dilution microtiter; read-out: MIC
Experimental: (§2) Especially noteworthy is the improved activity against gram-negative bacteria for several derivatives when compared to the activity of OMT. […] The MIC's in Tables V and VI were determined by standard agar-dilution assays. The MIC's in Table VII were obtained using a conventional broth-dilution microtiter test.

[4] = tested on: Pasteurella multocida 17E; assay: MIC, broth-dilution microtiter test (Table VII); type: cell-based; conditions: Pasteurella multocida; P. multocida 17E, bovine isolate; broth-dilution microtiter; read-out: MIC
Summary of the method: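 Conventional dilution MICs: agar for Enterobacter, microtiter broth for Staphylococcus and Pasteurella.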

Escherichia coli EC14 = assay: MIC, standard agar-dilution assay (Table V); type: cell-based; conditions: Escherichia coli
Summary of the method: (§3)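 Growth inhibition in liquid medium, in a routine microtiter broth-dilution series, gave the MIC against staphylococci and pasteurellae; the gram-negative enteric strain was tested by conventional agar dilution instead.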

[5] = tested on: Staphylococcus epidermidis EPI2; assay: MIC, standard agar-dilution assay (Table V); type: cell-based; conditions: Staphylococcus epidermidis; S. epidermidis EPI2; agar dilution; read-out: MIC
Experimental: as §2

[6] = tested on: Klebsiella pneumoniae X26; assay: MIC, standard agar-dilution assay (Table V); type: cell-based; conditions: Klebsiella pneumoniae
Experimental: as §2

[7] = tested on: Streptococcus Group D X66; assay: MIC, standard agar-dilution assay (Table V); type: cell-based
Experimental: as §2

[8] = tested on: Staphylococcus epidermidis EPI1; assay: MIC, standard agar-dilution assay (Table V); type: cell-based; conditions: Staphylococcus epidermidis; S. epidermidis EPI1; agar dilution; read-out: MIC
Experimental: as §2

[9] = tested on: Staphylococcus aureus X400; assay: MIC, standard agar-dilution assay (Table V); type: cell-based; conditions: Staphylococcus aureus
Experimental: as §2

[10] = tested on: Klebsiella pneumoniae KAE; assay: MIC, standard agar-dilution assay (Table V); type: cell-based; conditions: Klebsiella pneumoniae
Summary of the method: as §3

[11] = tested on: Staphylococcus aureus X1.1; assay: MIC, standard agar-dilution assay (Table V); type: cell-based; conditions: Staphylococcus aureus; S. aureus X1.1; agar dilution; read-out: MIC
Experimental: as §2

Streptococcus Group 9960 = assay: MIC, standard agar-dilution assay (Table V); type: cell-based; conditions: GROUP9960
Experimental: as §2

Escherichia coli N10 = assay: MIC, standard agar-dilution assay (Table V); type: cell-based; conditions: Escherichia coli
Summary of the method: as §3

[12] = tested on: Staphylococcus aureus S13E; assay: MIC, standard agar-dilution assay (Table V); type: cell-based; conditions: Staphylococcus aureus, S13E
Experimental: as §2

[13] = tested on: Staphylococcus aureus V41; assay: MIC, standard agar-dilution assay (Table V); type: cell-based; conditions: Staphylococcus aureus, V41
Experimental: as §2

Shigella sonnei N9 = assay: MIC, standard agar-dilution assay (Table V); type: cell-based
Summary of the method: as §3

[14] = tested on: Streptococcus pyogenes C203; assay: ED50 in mice experimentally infected with S. pyogenes C203 (Table VIII); type: in vivo
Experimental: The C-23 modified derivatives of OMT of this invention have shown in vivo antimicrobial activity against experimental infections. When two doses of test compound were administered to mice experimentally infected with a gram-positive bacterium, S. pyogenes C203, the activity observed was measured as an ED50 value [effective dose in mg/kg to protect 50% of the test animals: see Warren Wick, et al., J. Bacteriol. 81, 233-235 (1961)].

Proteus morganii PR15 = assay: MIC, standard agar-dilution assay (Table VI); type: cell-based; conditions: Morganella morganii; P. morganii PR15; agar dilution; read-out: MIC
Experimental: as §2

Proteus inconstans PR33 = assay: MIC, standard agar-dilution assay (Table VI); type: cell-based; conditions: Providencia alcalifaciens
Experimental: as §2

[15] = tested on: Enterobacter aerogenes EB17; assay: MIC, standard agar-dilution assay (Table VI); type: cell-based; conditions: Klebsiella aerogenes
Experimental: as §2

Enterobacter cloacae EB5 = assay: MIC, standard agar-dilution assay (Table VI); type: cell-based; conditions: E. cloacae EB5, agar dilution, read-out: MIC
Experimental: as §2

[16] = tested on: Salmonella heidelberg X514; assay: MIC, standard agar-dilution assay (Table VI); type: cell-based; conditions: Salmonella enterica
Experimental: as §2

Proteus rettgeri C24 = assay: MIC, standard agar-dilution assay (Table VI); type: cell-based; conditions: Providencia rettgeri, P. rettgeri C24
Experimental: as §2

[17] = tested on: Enterobacter aerogenes C32; assay: MIC, standard agar-dilution assay (Table VI); type: cell-based; conditions: Klebsiella aerogenes
Experimental: as §2

[18] = tested on: Pseudomonas aeruginosa Ps18; assay: MIC, standard agar-dilution assay (Table VI); type: cell-based; conditions: P. aeruginosa Ps18, agar dilution, read-out: MIC
Experimental: as §2

Serratia marcescens X99 = assay: MIC, standard agar-dilution assay (Table VI); type: cell-based; conditions: S. marcescens X99, agar dilution, read-out: MIC
Experimental: as §2

Proteus rettgeri PR7 = assay: MIC, standard agar-dilution assay (Table VI); type: cell-based; conditions: Providencia rettgeri; P. rettgeri PR7; agar dilution; read-out: MIC
Experimental: as §2

[19] = tested on: Pseudomonas aeruginosa X528; assay: MIC, standard agar-dilution assay (Table VI); type: cell-based
Experimental: as §2

Serratia marcescens SE3 = assay: MIC, standard agar-dilution assay (Table VI); type: cell-based; conditions: S. marcescens SE3, agar dilution, read-out: MIC
Experimental: as §2

Salmonella typhi 1335 = assay: MIC, standard agar-dilution assay (Table VI); type: cell-based; conditions: Salmonella enterica
Experimental: as §2

[20] = tested on: Citrobacter freundii CF17; assay: MIC, standard agar-dilution assay (Table VI); type: cell-based
Experimental: as §2

[21] = tested on: Klebsiella pneumoniae X68; assay: MIC, standard agar-dilution assay (Table VI); type: cell-based; conditions: X68
Experimental: as §2

[22] = tested on: Pseudomonas aeruginosa X239; assay: MIC, standard agar-dilution assay (Table VI); type: cell-based; conditions: P. aeruginosa X239, agar dilution, read-out: MIC
Experimental: as §2

[23] = tested on: Streptococcus pneumoniae Park I; assay: microbe, parasite or virus in culture; type: cell-based; conditions: Streptococcus pneumoniae, read-out: MIC
Experimental: as §2

[24] = C203, sc, mice, subcutaneous, doses given 1 and 4 hours postinfection, read-out: ED50, Subcutaneous

Row | Compound | MIC [2] | MIC [3] | MIC (Mycoplasma synoviae) | MIC [4] | MIC [5] | MIC [8] | MIC [10] | MIC [11] | MIC (Streptococcus Group 9960) | MIC [12] | MIC [13] | MIC (Shigella sonnei N9) | ED50 ([14]; C203, po, read-out: ED50, Oral) | ED50 [14, 24] | MIC (Proteus morganii PR15) | MIC (Enterobacter cloacae EB5) | MIC (Proteus rettgeri C24) | MIC [18] | MIC (Serratia marcescens X99) | MIC (Proteus rettgeri PR7) | also measured
1 | CCC1OC(=O)CC(O)C(C)C(OC2OC(C)C(O)C(N(C)C)C2O)C(CC=O)CC(C)C(=O)C=CC(C)=CC1CSc1ccccc1 (centres unmarked) [Compound 2, 23-Deoxy-23-(phenyl)thio-OMT] | 1 µg/mL (≈ 1.45 µM) | 0.015 µg/mL (≈ 0.0217 µM) | 0.39 µg/mL (≈ 0.565 µM) | 1.56 µg/mL (≈ 2.26 µM) | 0.125 µg/mL (≈ 0.181 µM) | 0.125 µg/mL (≈ 0.181 µM) | 64 µg/mL (≈ 92.8 µM) | 0.125 µg/mL (≈ 0.181 µM) | 0.5 µg/mL (≈ 0.725 µM) | 0.06 µg/mL (≈ 0.087 µM) | 0.125 µg/mL (≈ 0.181 µM) | 16 µg/mL (≈ 23.2 µM) | > 100 mg/kg | 25.7 mg/kg | 8 µg/mL (≈ 11.6 µM) | 64 µg/mL (≈ 92.8 µM) | 16 µg/mL (≈ 23.2 µM) | 64 µg/mL (≈ 92.8 µM) | 64 µg/mL (≈ 92.8 µM) | 16 µg/mL (≈ 23.2 µM) | MIC ([1]; H. influenzae R252, ampicillin-resistant strain, agar dilution, read-out: MIC): 1 µg/mL (≈ 1.45 µM); MIC (Escherichia coli EC14; EC14): 32 µg/mL (≈ 46.4 µM); MIC ([6]; X26): 2 µg/mL (≈ 2.9 µM); MIC ([7]; Streptococcus Group D X66, agar dilution, read-out: MIC): 0.06 µg/mL (≈ 0.087 µM); MIC ([9]; S. aureus X400, methicillin-resistant strain, agar dilution, read-out: MIC): 0.125 µg/mL (≈ 0.181 µM); MIC (Escherichia coli N10; N10): 32 µg/mL (≈ 46.4 µM); MIC (Proteus inconstans PR33; PR33): 32 µg/mL (≈ 46.4 µM); MIC ([15]; EB17): 32 µg/mL (≈ 46.4 µM); MIC ([16]; X514): 64 µg/mL (≈ 92.8 µM); MIC ([17]; C32): 32 µg/mL (≈ 46.4 µM); MIC ([19]; X528): 16 µg/mL (≈ 23.2 µM); MIC (Serratia marcescens SE3): 64 µg/mL (≈ 92.8 µM); MIC (Salmonella typhi 1335): 64 µg/mL (≈ 92.8 µM); MIC ([20]; CF17): 32 µg/mL (≈ 46.4 µM); MIC [21]: 32 µg/mL (≈ 46.4 µM); MIC [22]: 64 µg/mL (≈ 92.8 µM); MIC [23]: 0.06 µg/mL (≈ 0.087 µM)
2 | CCC1OC(=O)CC(O)C(C)C(OC2OC(C)C(O)C(N(C)C)C2O)C(CC=O)CC(C)C(=O)C=CC(C)=CC1CF (centres unmarked) [Compound 15, 23-Deoxy-23-fluoro-OMT] | 1 µg/mL (≈ 1.67 µM) | 0.125 µg/mL (≈ 0.208 µM) | 0.39 µg/mL (≈ 0.65 µM) | 3.12 µg/mL (≈ 5.2 µM) | 0.5 µg/mL (≈ 0.834 µM) | 0.25 µg/mL (≈ 0.417 µM) | 64 µg/mL (≈ 107 µM) | 0.25 µg/mL (≈ 0.417 µM) | 0.5 µg/mL (≈ 0.834 µM) | 0.5 µg/mL (≈ 0.834 µM) | 0.5 µg/mL (≈ 0.834 µM) | 32 µg/mL (≈ 53.4 µM) | > 100 mg/kg | 4.6 mg/kg | 64 µg/mL (≈ 107 µM) | > 128 µg/mL | 32 µg/mL (≈ 53.4 µM) | 32 µg/mL (≈ 53.4 µM) | 64 µg/mL (≈ 107 µM) | 32 µg/mL (≈ 53.4 µM) | MIC ([1]; R252): 0.5 µg/mL (≈ 0.834 µM); MIC (Escherichia coli EC14; E. coli EC14, agar dilution, read-out: MIC): 32 µg/mL (≈ 53.4 µM); MIC ([6]; K. pneumoniae X26, agar dilution, read-out: MIC): 2 µg/mL (≈ 3.33 µM); MIC [7]: 0.5 µg/mL (≈ 0.834 µM); MIC ([9]; X400): 0.5 µg/mL (≈ 0.834 µM); MIC (Escherichia coli N10; E. coli N10, agar dilution, read-out: MIC): 32 µg/mL (≈ 53.4 µM); MIC (Proteus inconstans PR33; P. inconstans PR33, agar dilution, read-out: MIC): > 128 µg/mL; MIC ([15]; E. aerogenes EB17, agar dilution, read-out: MIC): 64 µg/mL (≈ 107 µM); MIC ([16]; S. heidelberg X514, agar dilution, read-out: MIC): 64 µg/mL (≈ 107 µM); MIC ([17]; E. aerogenes C32, agar dilution, read-out: MIC): 64 µg/mL (≈ 107 µM); MIC ([19]; P. aeruginosa X528, agar dilution, read-out: MIC): 16 µg/mL (≈ 26.7 µM); MIC (Serratia marcescens SE3): > 128 µg/mL; MIC (Salmonella typhi 1335): 64 µg/mL (≈ 107 µM); MIC ([20]; C. freundii CF17, agar dilution, read-out: MIC): > 128 µg/mL; MIC [21]: 64 µg/mL (≈ 107 µM); MIC [22]: 64 µg/mL (≈ 107 µM); MIC ([23]; S. pneumoniae Park I, agar dilution): 0.125 µg/mL (≈ 0.208 µM)
